According to patent US9302993B2, “8-hydroxy quinoline derivatives” (PRANA BIOTECHNOLOGY LIMITED, priority 2002, dated 2016):
Where “and” joins values, the source holds several entries; their conditions need not be identical. Identical values can stand only once.

Key:
Neuronal cortical cells = test: Assay for test compound cytoxicity, MTS (Assay 3(d)); format: cell-based, mouse; settings: BL6J×129sv, mouse, 4 days
Experimental: (§1) Media was then replaced with Neurobasal media (Invitrogen Life Technologies) and B27 supplements (Invitrogen Life Technologies). Cultures were maintained at 37° C. in 5% CO2. Prior to experimentation, the culture medium was replaced with Neurobasal media and B27 minus antioxidants (Invitrogen Life Technologies).
Cell viability is determined using the MTS assay. Culture medium is […] replaced with fresh neurobasal medium plus B27 supplements minus antioxidants. 1/10th volume MTS solution (Cell Titre 96 Aqueous One, Promega Corporation) and incubated at 37° C., 2 hrs. 200 microliter aliquots are measured with a spectrophotometer at 560 nm.
(d) Assay for Test Compound Cytoxicity
Neuronal cortical cells were cultured for five days as per Assay 2 in NB media and B27 supplement.
On day six the test compounds were added to the neuronal cell cultures in NB media and B27 supplement minus antioxidants.
Test compounds were dissolved in 100% DMSO to a concentration of 2.5 mM (10 mM if excess compound was weighed out per vial—then diluted to 2.5 mM). […] Test compounds were not added directly to cells, instead they were added to a 48 well ‘Drug Plate’ as comprised below:
(§2) The Drug Plate was incubated at 37° C. for 15 mins. 200 ul of each well was added in triplicate to the corresponding cell plate. The cell plate was incubated at 37 C, for 4 days.
On completion of the assay, 1/10 volume MTS was added per well of plate (ie 25 ul/250 ul). The plates were incubated at 37 C for 2 hrs, and then absorbance was read at 560 nm.

[1] = target: T1, hydrogen peroxide generation by Aβ in the presence of copper (Homo sapiens, UniProt P05067); test: Fluorometric H2O2 assay (Assay 1); format: biochemical; settings: Aβ 1-42 with Cu-Gly, DCF/HRP, 37 C 60 min; several values in one cell = repeat determinations; read-out: Peroxide IC50
T1 construct: The reaction solutions contained Aβ 1-42 at concentrations in the range of 50 nM to 1 μM
T1 sequence (P05067 672-713 limits assumed): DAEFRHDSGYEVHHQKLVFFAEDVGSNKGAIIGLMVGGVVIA
Experimental: Assay 1. Fluorometric H2O2 Assay
A fluorometric assay was used to test the ability of a test compound to inhibit hydrogen peroxide generation by Aβ in the presence of copper based on dichlorofluoroscein diacetate (DCF; Molecular Probes, Eugene Oreg.). The DCF solution (5 mM) in 100% dimethyl sulphoxide (previously purged with argon for 2 hr at 20° C.) was deacetylated in the presence of 0.25M NaOH for 30 min and neutralised at pH 7.4 to a final concentration of 1 mM. Horseradish peroxidase (HRP) stock solution was prepared to 1 μM at pH 7.4. The reactions were carried out in PBS, pH 7.4 in a 96 well plate (total volume=250 μl/well). The reaction solutions contained Aβ 1-42 at concentrations in the range of 50 nM to 1 μM, copper-glycine chelate (Cu-Gly), was prepared by adding CuCl2 to glycine in the ratio of 1:6 and added to the Aβ in the proportion 2Cu-Gly: 1Aβ), reducing agents including dopamine (5 μM) or ascorbic acid, deacetylated DCF 100 μM, and HRP, 0.1 μM. […] The reaction mixture was incubated at 37 C for 60 min. […] H2O2 concentration may be established by comparing fluorescence with the H2O2 standards. Inhibition of AB H2O2 production was assayed by including a given concentration of test compound(s) in the test wells.

[2] = test system: Neuronal cortical cells treated with Aβ1-42; test: Assay for Aβ neurotoxicity and Aβ neuroprotection (Assay 3(c)); format: cell-based, mouse; settings: 20 uM Aβ1-42, 4 days, MTS
Experimental: as §1
(c) Assay for Aβ Neurotoxicity and Aβ Neuroprotection
Neuronal cortical cells were cultured for five days as per Assay 2. On day six the neurobasal (NB) media (Invitrogen Life Technologies) and B27 supplement (Invitrogen Life Technologies) were replaced with NB media and B27 supplement (no antioxidants). On day six, test compounds were individually added to the neuronal cell cultures:
Aβ was initially dissolved in 20 mM NaOH to a concentration of 1 mM and sonicated for 5 minutes. The peptide was then diluted in H2O and 10×PBS to a final concentration of 200 uM Aβ in 1×PBS. The peptide was again sonicated for 5 minutes and then spun at 14000 rpm for 5 min and transferred to a fresh tube.
The test compounds were dissolved in 100% DMSO to a concentration of 2.5 mM (10 mM if excess compound was weighed out per vial—then diluted to 2.5 mM). […] Test compounds were not added directly to cells, instead they were added to a 48 well ‘Drug Plate’ as comprised below:
as §2
On the 4th day after treating the cells the assay is completed by adding MTS to the cells.

[3] = test system: Aβ in extract of tissue from post mortem human AD brain; test: Human brain amyloid solubilisation assay (Assay 9, BAS); format: biochemical; settings: solubilising plaques relative to PBS
Experimental: Assay 9. Human Brain Amyloid Solubilisation Assay
This assay was performed in order to assess the ability of a test compound to mobilise Aβ from the insoluble to the soluble phase of an extract of tissue from post mortem human AD brain.
Up to 0.5 g of plaque-bearing cortex without meninges was homogenized using a DIAX 900 homogenizer (Heudolph and Co, Kelheim, Germany) or other suitable device for three 30-second periods at full speed in 2 ml of ice-cold phosphate-buffered saline, pH 7.4. To obtain the phosphate-buffered saline-extractable fraction, the homogenate was centrifuged at 100,000×g for 30 min and the supernatant removed. Alternatively, the tissue was freeze dried then pulverised to form a powder which was then weighed out into aliquots for extraction as above. Supernatant, either freeze-dried and resuspended or in unconcentrated form, was dissolved in 200 μl of Tris-Tricine sodium dodecyl sulfate (SDS) sample buffer pH 8.3 containing 8% SDS, 10% 2-mercaptoethanol. Aliquots (10 μl) were then boiled for 10 minutes before SDS-polyacrylamide gel electrophoresis. The insoluble fraction of the cortical samples was obtained by resuspending the initial pelleted sample in 1 ml of phosphate-buffered saline. A 50-μl aliquot of this suspension was then boiled in […] of sample buffer as above.
Tris-Tricine polyacrylamide gel electrophoresis was performed by loading appropriately diluted samples on to 10% to 20% gradient gels (Novex, San Diego, Calif.) followed by transfer on to 0.2-μm nitrocellulose membrane (Bio-Rad, Hercules, Calif.). Aβ was detected by using monoclonal antibody W02, which detects residues 5 through 8, […] (or another suitable antibody) in conjunction with horseradish peroxidase-conjugated rabbit anti-mouse IgG (Dako, Denmark), and visualized by using enhanced chemiluminescence (eg ECL; Amersham Life Science, Buckinghamshire, UK). Each gel included three lanes containing 0.5, 1, and 2 ng of synthetic Aβ40 (Keck Laboratory, Yale University, New Haven, Conn.) as reference standards.
Blot films were scanned by using a suitable imaging system such as the UVP gel documentation system, and densitometry performed using suitable software, eg UVP Labworks. The dynamic range of the film/scanner was determined by using a step tablet (No. 911ST600, Kodak, Rochester N.Y.), a calibrated film exposed by the manufacturer to provided steps of known increasing intensity. The quantifiable range of signal intensity for densitometric analysis of the mono- and dimeric Aβ bands was based on the comparison with a curve obtained by scanning and densitometry of the step tablet.
All samples were analysed at least twice, and gel loadings and dilutions were adjusted to fit within the quantifiable region of the standard curve. […] The insoluble Aβ being comprised of the pelletable fraction derived from the insoluble amyloid plaque from the above cortical samples and the soluble fraction comprising monomeric and/or oligomeric soluble Aβ.

## Oc1c(Br)cc(Br)c2cccnc12 [compound 47]
Neuronal cortical cells
  Test Compound Cytoxicity 1 uM: 88
  Test Compound Cytoxicity 10 uM: 86
  Viable 10 uM: 93.59
[1]
  IC50: 900 nM
[2]
  % inhibition Abeta toxicity: 13%

## O=C(NCc1ccccn1)c1ccc2cccc(O)c2n1 [compound 949]
Neuronal cortical cells
  Viable 10 uM: 84.82
[3]
  BAS Score: +
[1]
  IC50: 900 nM

## O=C(Nc1ccccc1O)c1ccc2cccc(O)c2n1 [compound 951]
Neuronal cortical cells
  Viable 10 uM: 91.86
[3]
  BAS Score: −
[1]
  IC50: 1430 nM

## O=C(NCCc1cnc[nH]1)c1cc(O)c2cccc(O)c2n1 [compound 954]
Neuronal cortical cells
  Viable 10 uM: 104.9
[3]
  BAS Score: −
[1]
  IC50: 180 nM

## O=C(NCc1ccccn1)c1cc(O)c2cccc(O)c2n1 [compound 955]
Neuronal cortical cells
  Viable 10 uM: 100
[3]
  BAS Score: −
[1]
  IC50: 260 nM and 180 nM

## N=C(N)NCc1ccc2cccc(O)c2n1 [compound 966]
Neuronal cortical cells
  Viable 10 uM: 88.61
[3]
  BAS Score: +
[1]
  IC50: 4300 nM

## Oc1cccc2ccc(CNCCc3c[nH]cn3)nc12 [compound 989]
Neuronal cortical cells
  Viable 10 uM: 43.24
[3]
  BAS Score: −
[1]
  IC50: 420 nM

## Oc1cccc2ccc(CN(CCc3c[nH]cn3)Cc3nccs3)nc12 [compound 1002]
Neuronal cortical cells
  Test Compound Cytoxicity 1 uM: 82
  Test Compound Cytoxicity 10 uM: 34
[1]
  IC50: 390 nM
[2]
  % inhibition Abeta toxicity: 17%

## Oc1cccc2ccc(CN(Cc3ccccn3)Cc3nccs3)nc12 [compound 1003]
Neuronal cortical cells
  Test Compound Cytoxicity 1 uM: 97
  Test Compound Cytoxicity 10 uM: 38
[1]
  IC50: 550 nM
[2]
  % inhibition Abeta toxicity: 17%

## CSc1ccccc1-c1ccc2cccc(O)c2n1 [compound 1005]
Neuronal cortical cells
  Test Compound Cytoxicity 1 uM: 100
  Test Compound Cytoxicity 10 uM: 95
[1]
  IC50: 2400 nM
[2]
  % inhibition Abeta toxicity: 1%

## Cc1cccc(-c2ccc3cccc(O)c3n2)n1 [compound 1007]
Neuronal cortical cells
  Test Compound Cytoxicity 1 uM: 90
  Test Compound Cytoxicity 10 uM: 43
[1]
  IC50: 580 nM
[2]
  % inhibition Abeta toxicity: 9%

## Oc1cccc2ccc(CN(CCc3c[nH]cn3)Cc3c[nH]cn3)nc12 [compound 1008]
Neuronal cortical cells
  Test Compound Cytoxicity 1 uM: 86
  Test Compound Cytoxicity 10 uM: 28
[1]
  IC50: 260 nM
[2]
  % inhibition Abeta toxicity: 9%

## Oc1cccc2ccc(CN(CCc3c[nH]cn3)Cc3ccccn3)nc12 [compound 1009]
Neuronal cortical cells
  Test Compound Cytoxicity 1 uM: 94
  Test Compound Cytoxicity 10 uM: 32
[1]
  IC50: 320 nM
[2]
  % inhibition Abeta toxicity: 16%

## Oc1cccc2ccc(CN(Cc3ccccn3)Cc3ccccn3)nc12 [compound 1010]
Neuronal cortical cells
  Test Compound Cytoxicity 1 uM: 88
  Test Compound Cytoxicity 10 uM: 27
[1]
  IC50: 330 nM
[2]
  % inhibition Abeta toxicity: 12%

## Oc1cccc2ccc(CN(Cc3ccccn3)Cc3c[nH]cn3)nc12 [compound 1011]
Neuronal cortical cells
  Test Compound Cytoxicity 1 uM: 89
  Test Compound Cytoxicity 10 uM: 31
[1]
  IC50: 320 nM
[2]
  % inhibition Abeta toxicity: 21%

## O=C(c1ccc2cccc(O)c2n1)N(Cc1ccccn1)Cc1ccccn1 [compound 1020]
Neuronal cortical cells
  Test Compound Cytoxicity 1 uM: 85
  Test Compound Cytoxicity 10 uM: 83
[1]
  IC50: 1300 nM
[2]
  % inhibition Abeta toxicity: 4%

## CC(=O)NC(=O)c1ccc2cccc(O)c2n1 [compound 1021]
Neuronal cortical cells
  Test Compound Cytoxicity 1 uM: 93
  Test Compound Cytoxicity 10 uM: 81
[1]
  IC50: 270 nM
[2]
  % inhibition Abeta toxicity: 1%

## O/N=C/c1ccc2c(Cl)cc(Cl)c(O)c2n1 [compound 1031]
Neuronal cortical cells
  Test Compound Cytoxicity 1 uM: 85
  Test Compound Cytoxicity 10 uM: 81
[1]
  IC50: 760 nM
[2]
  % inhibition Abeta toxicity: 8%

## CO/N=C/c1ccc2c(Cl)cc(Cl)c(O)c2n1 [compound 1032]
Neuronal cortical cells
  Test Compound Cytoxicity 1 uM: 83
  Test Compound Cytoxicity 10 uM: 42
[1]
  IC50: 1000 nM
[2]
  % inhibition Abeta toxicity: −2%

## NC(=O)c1ccc2c(Cl)cc(Cl)c(O)c2n1 [compound 1037]
Neuronal cortical cells
  Test Compound Cytoxicity 1 uM: 88
  Test Compound Cytoxicity 10 uM: 87
[1]
  IC50: > 10000 nM
[2]
  % inhibition Abeta toxicity: 4%

## O=C(O)c1ccc2c(Cl)cc(Cl)c(O)c2n1 [compound 1039]
Neuronal cortical cells
  Test Compound Cytoxicity 1 uM: 94
  Test Compound Cytoxicity 10 uM: 87
[1]
  IC50: > 10000 nM
[2]
  % inhibition Abeta toxicity: 9%
